Here are results for four compounds from BindingDB's records for doi:10.1016/S0960-894X(96)00483-0 (1996).

The assay concerns the target Kynureninase (Pseudomonas fluorescens) (UniProt P83788). As to the kind of experiment: Compound was evaluated for its binding affinity against kynureninase isolated from Pseudomonas fluorescence.

As usually defined, the Ki is a measure of affinity in units of concentration, obtained from inhibition or displacement. The low end stands for a stronger hold on the target, the high end for a looser hold on the target.

Chain of Kynureninase (Pseudomonas fluorescens) (P83788 whole entry, looked up): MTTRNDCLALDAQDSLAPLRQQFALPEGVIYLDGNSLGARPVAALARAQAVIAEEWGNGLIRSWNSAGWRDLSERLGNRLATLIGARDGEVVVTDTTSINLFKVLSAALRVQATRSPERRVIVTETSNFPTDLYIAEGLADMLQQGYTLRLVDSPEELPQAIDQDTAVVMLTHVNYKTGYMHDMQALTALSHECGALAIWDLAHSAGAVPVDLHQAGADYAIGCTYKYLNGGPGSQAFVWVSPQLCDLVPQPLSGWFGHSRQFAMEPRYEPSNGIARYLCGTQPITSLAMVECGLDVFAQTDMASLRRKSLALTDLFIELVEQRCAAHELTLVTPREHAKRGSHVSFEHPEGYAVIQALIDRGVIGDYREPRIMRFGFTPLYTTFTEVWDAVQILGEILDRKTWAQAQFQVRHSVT

On to `Nc1ccccc1C(=O)C[C@H](N)C(=O)O` [2-ammonio-4-(2-ammoniophenyl)-4-oxo-(2S)-butanoate], for which the Ki came to 4.28 µM. The figure for `N[C@@H](CC(=O)c1ccccc1)C(=O)O` [2-ammonio-4-oxo-4-phenyl-(2S)-butanoate] is 23.4 µM; for `COC(=O)[C@H](CP(=O)(OC)c1ccccc1)NC(=O)OCc1ccccc1` (stereo partly drawn) [(R)-2-Benzyloxycarbonylamino-3-(methoxy-phenyl-phosphinoyl)-propionic acid methyl ester] it is 8.8 µM. As for `COP(=O)(C[C@H](NC(=O)OCc1ccccc1)C(=O)O)c1ccccc1` (stereo partly drawn) [(R)-2-Benzyloxycarbonylamino-3-(methoxy-phenyl-phosphinoyl)-propionic acid], the affinity, expressed as Ki, was 880 µM.
